{"source": "patent US20250108038A1", "about": "(priority 2023, published 2025)", "key": {"CYP2C8": {"biological_target": "T1, CYP2C8 (Homo sapiens, UniProt P10632)", "T1 sequence (P10632 1-490)": "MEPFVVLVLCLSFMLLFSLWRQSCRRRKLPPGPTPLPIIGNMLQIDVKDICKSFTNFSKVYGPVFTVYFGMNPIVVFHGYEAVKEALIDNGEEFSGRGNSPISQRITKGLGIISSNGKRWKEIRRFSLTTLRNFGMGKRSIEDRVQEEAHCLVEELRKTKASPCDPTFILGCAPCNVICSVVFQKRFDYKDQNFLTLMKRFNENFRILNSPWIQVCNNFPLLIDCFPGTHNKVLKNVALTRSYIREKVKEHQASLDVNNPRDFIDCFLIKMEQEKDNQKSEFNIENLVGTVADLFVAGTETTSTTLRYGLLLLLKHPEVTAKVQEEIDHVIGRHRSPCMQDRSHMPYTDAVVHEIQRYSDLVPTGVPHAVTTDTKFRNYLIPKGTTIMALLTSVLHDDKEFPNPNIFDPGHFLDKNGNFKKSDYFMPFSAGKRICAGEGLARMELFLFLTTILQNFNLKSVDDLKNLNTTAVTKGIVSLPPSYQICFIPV", "test": "in vitro", "details": "both, pH 7.4"}, "CYP2D6": {"biological_target": "CYP2D6 (Homo sapiens, UniProt P10635)", "sequence (P10635 whole entry)": "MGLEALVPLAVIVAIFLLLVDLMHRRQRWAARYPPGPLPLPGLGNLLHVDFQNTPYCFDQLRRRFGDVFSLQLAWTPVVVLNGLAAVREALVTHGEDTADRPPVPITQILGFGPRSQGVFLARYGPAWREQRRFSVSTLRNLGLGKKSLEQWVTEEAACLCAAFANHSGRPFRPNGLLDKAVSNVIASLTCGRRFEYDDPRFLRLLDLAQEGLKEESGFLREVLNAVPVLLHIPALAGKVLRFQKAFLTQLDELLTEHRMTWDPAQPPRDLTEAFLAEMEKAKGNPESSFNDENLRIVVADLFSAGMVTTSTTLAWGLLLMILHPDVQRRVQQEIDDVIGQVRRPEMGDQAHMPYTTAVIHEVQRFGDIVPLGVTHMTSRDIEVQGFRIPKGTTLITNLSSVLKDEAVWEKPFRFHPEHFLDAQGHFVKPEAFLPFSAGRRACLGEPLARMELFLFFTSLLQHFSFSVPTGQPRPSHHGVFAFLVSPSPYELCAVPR", "test": "biochemical"}, "[1]": {"test": "Equilibrium dialysis control in DPBS and stability in DPBS, plasma and brain homogenate", "format": "in vitro ADME, mouse", "details": "for % Recovery / % Unbound: DPBS", "method": "Samples of spiked plasma and blank buffer (Dulbecco's phosphate-buffered saline, DPBS) and spiked brain homogenate and blank DPBS added to opposing sides of a dialysis membrane were collected from triplicate equilibrium dialysis chambers prior to (t=0) and following 1, 2, 4 and 6 hours of incubation at 37° C. […] The LC-MS/MS method(s) for analytes (Compound I-19, Compound A and Compound B) was cross-qualified for the analysis of the DPBS samples.\nA secondary stock solution of 200 μM (74.2 ug/mL) will be prepared in DMSO. This secondary stock solution will then be diluted 100-fold to 2 μM ([…]) with male CD-1 mouse plasma and brain homogenate (1:2 v/v brain:Dulbecco's phosphate buffered saline, pH 7-7.2) or buffer (DPBS).\nTo 2.97 mL aliquots of thawed mouse plasma or brain homogenate warmed to 37° C., 30 ul aliquots of the secondary stock solution of the test compound will be added for final concentrations of 2 μM (0.742 ug/mL). An appropriate volume of warmed buffer (DPBS) will also be spiked with the test compound at a concentration of 2 μM ([…]). Triplicate aliquots (50 μL) of each spiked plasma, brain homogenate and buffer solution will be collected prior to dialysis into labeled 1.5 mL polypropylene tubes and then stored at approximately −80° C. until bioanalysis."}, "[2]": {"details": "dialysis time 1 h, 2 μM, 37° C."}, "[3]": {"details": "dialysis time 2 h, 2 μM, 37° C."}, "[4]": {"details": "dialysis time 4 h, 2 μM, 37° C."}, "[5]": {"details": "dialysis time 6 h, 2 μM, 37° C."}}}
{"smiles": "OC1(c2ccc(Cl)cc2)c2ccccc2C2=NCCN21", "note": "(stereo not shown) [Compound A, 5-(4-chlorophenyl)-2,3-dihydroimidazo[1,2-b]isoindol-5-ol, reference compound]", "values": [{"measurement": "inhibition at 10 µM", "setting": "CYP2C8", "result": 48.9, "unit": "%"}, {"measurement": "IC50", "setting": "CYP2D6", "result": 4.16, "unit": "µM"}]}
{"smiles": "Clc1ccc(C2(OCC3OCCO3)c3ccccc3C3=NCCN32)cc1", "note": "(stereo not shown) [Compound I-19]", "values": [{"measurement": "Stability in DPBS, plasma and brain homogenate", "setting": "[1]; 2 μM, 37° C., 6 hours", "result": "unstable in all three matrices"}, {"measurement": "% unbound in DPBS", "setting": "[1]; 2 μM, 6 hours of dialysis", "result": "94.0±5.12", "unit": "%"}, {"measurement": "% recovery, DPBS alone", "setting": "[1]; 6 hours of dialysis", "result": "20.2±0.461", "unit": "%"}, {"measurement": "% Recovery", "setting": "[1]; [2]", "result": "64.7 ± 3.04", "unit": "%"}, {"measurement": "% Unbound", "setting": "[1]; [2]", "result": "40.3 ± 3.69", "unit": "%"}, {"measurement": "% Recovery", "setting": "[1]; [3]", "result": "55.5 ± 2.08", "unit": "%"}, {"measurement": "% Unbound", "setting": "[1]; [3]", "result": "81.9 ± 5.87", "unit": "%"}, {"measurement": "% Recovery", "setting": "[1]; [4]", "result": "32.6 ± 1.05", "unit": "%"}, {"measurement": "% Unbound", "setting": "[1]; [4]", "result": "91.1 ± 4.19", "unit": "%"}, {"measurement": "% Recovery", "setting": "[1]; [5]", "result": "20.2 ± 0.461", "unit": "%"}, {"measurement": "% Unbound", "setting": "[1]; [5]", "result": "94.0 ± 5.12", "unit": "%"}]}
